Data on six compounds can be found in USRE39616E1, “Aminoindan derivatives” (priority 1996, dated 2007).

Structures can show the parent of a compound that is named as a salt. Where two headings read alike, the source gives them in different places. Marks after values point to notes of the source that are not given here.

One test concerns the target T1, MAO-B (Rattus norvegicus, UniProt P19643).
T1 sequence (P19643 1-520): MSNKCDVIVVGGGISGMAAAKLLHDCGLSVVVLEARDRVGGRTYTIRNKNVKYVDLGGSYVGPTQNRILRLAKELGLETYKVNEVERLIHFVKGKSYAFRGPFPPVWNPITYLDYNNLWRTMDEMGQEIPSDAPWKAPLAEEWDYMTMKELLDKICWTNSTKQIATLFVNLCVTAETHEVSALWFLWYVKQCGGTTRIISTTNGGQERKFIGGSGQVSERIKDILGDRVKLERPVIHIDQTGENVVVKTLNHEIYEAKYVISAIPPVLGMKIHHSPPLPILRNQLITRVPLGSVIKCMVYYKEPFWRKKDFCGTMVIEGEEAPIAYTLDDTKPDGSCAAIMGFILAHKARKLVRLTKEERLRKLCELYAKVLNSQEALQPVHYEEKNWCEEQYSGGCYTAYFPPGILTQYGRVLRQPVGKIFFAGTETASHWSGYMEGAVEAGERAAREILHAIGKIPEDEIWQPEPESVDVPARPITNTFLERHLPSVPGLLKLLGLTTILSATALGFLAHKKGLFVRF
The experiment in a line: Inhibition of MAO activity in vitro, PEA as substrate. The class given is biochemical. More on the design: The MAO enzyme source was a homogenate of rat brain in 0.3M sucrose; from tissue; host or cells: rat brain homogenate, 600 g supernatant. To be noted: MAO-B Inhibition In vitro IC50, rat brain homogenate. Here is the method: (§1) Substrate concentrations used were 50 μM (PEA) and 1 mM (5-HT).

The target of another test is T2, whole brain AChE (Mus musculus, UniProt P21836).
T2 sequence (P21836 32-614): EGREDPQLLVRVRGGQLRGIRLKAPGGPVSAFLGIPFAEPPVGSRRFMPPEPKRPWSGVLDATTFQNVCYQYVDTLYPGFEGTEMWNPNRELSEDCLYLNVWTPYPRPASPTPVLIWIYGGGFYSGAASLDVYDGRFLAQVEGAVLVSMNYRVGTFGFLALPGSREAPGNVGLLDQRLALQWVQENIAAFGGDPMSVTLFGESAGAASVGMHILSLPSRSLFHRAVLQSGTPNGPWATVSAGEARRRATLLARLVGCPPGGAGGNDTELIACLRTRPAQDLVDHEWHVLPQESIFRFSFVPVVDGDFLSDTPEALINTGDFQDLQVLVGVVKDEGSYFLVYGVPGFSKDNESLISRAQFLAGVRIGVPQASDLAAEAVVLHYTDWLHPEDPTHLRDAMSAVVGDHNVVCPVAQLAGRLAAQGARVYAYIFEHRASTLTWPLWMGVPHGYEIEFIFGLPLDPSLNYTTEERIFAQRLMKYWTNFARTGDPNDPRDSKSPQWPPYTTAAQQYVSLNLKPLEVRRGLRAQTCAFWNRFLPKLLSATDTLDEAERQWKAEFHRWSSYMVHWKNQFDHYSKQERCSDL
To be noted: for AChE Inhibition Ex vivo ED50 (AC): mice, whole brain, at peak of activity; for AChE Inhibition Time to peak activity t / AChE Inhibition Time to return to 50% of peak t: mouse, in vivo.

The test system of test [1] is Closed Head Injury (CHI) in Mice. Kind of test: Closed Head Injury (CHI) in mice: motor function, neurological severity score (NSS). It is filed as in vivo. The conditions noted are these: difference from NSS at 1 hr.
In the next test the target is T3, MAO-A (Rattus norvegicus, UniProt P21396).
T3 sequence (P21396 1-526): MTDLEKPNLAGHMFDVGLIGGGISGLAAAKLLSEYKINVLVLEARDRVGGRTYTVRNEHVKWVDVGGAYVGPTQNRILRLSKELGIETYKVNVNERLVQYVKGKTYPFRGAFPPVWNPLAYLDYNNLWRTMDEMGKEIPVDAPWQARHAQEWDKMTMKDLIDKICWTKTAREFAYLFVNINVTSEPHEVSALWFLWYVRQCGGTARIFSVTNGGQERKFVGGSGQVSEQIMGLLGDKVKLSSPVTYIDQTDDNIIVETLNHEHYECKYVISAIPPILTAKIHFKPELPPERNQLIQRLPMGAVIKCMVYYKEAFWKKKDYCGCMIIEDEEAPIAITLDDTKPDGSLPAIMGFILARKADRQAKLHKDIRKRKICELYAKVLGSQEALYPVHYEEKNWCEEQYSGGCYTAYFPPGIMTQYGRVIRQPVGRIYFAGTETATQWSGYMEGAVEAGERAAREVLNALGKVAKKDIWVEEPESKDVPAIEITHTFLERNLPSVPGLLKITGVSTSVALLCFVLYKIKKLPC
The experiment in a line: in vivo. It is filed as in vivo, rats. Further details: animals were sacrificed and MAO levels determined in the brain, liver and intestines; from tissue; host or cells: rat brain, liver and intestine. To be noted: for % MAO-A inhibition: HCl. Here is the method: as §1
Male Sabra mice, weighing 45-50 g were injected with test compound solutions (prepared in 0.9% saline). Each dose was administered to two or three mice. The mice were sacrificed two hours after drug administration or at a time corresponding to the peak AChE inhibition time (see Table 11). The brain and liver were rapidly dissected and stored in appropriate vials on ice. The tissues were weighed, diluted to ½ in sucrose 0.3M and stored at −20° C. before performance of the MAO assay described above. The results given in Table 11 relate to measurements made on brain tissue only.
Experiments were done in Sprague Dawley male rats. […] At the end of this period animals were sacrificed and MAO levels determined in the brain, liver and intestines.

For test [2], the system named is Middle Cerebral Artery Occlusion (MCA-O) in Male Wistar Rats. To be noted: rat, in vivo.
For test [3] the test system is unchanged.
Experimental: Male Wistar rats (Olac England-Jerusalem) 300-400 g each were anesthetized with a solution of Equitesine administered i.p. at a dose of 3 ml/kg. Equitesine consists of 13.5 ml sodium pentothal solution (60 mg/ml), 3.5 g chloral hydrate, 1.75 g MgSO4, 33 ml propylene glycol, 8.3 ml absolute alcohol, made up to 83 ml with distilled water.
The dura matter was opened carefully using a 27 gauge needle The MCA was permanently occluded by microbipolar coagulation at low power setting, beginning 2-3 mm medial to the olfactory tract between its cortical branch to the rhinal cortex and the laterate striate arteries. After coagulation, the MCA was severed with microscissors and divided to ensure complete occlusion. Following this, the temporalis muscle was sutured and laid over the craniectomy site. The skin was closed with a running 3-0 silk suture. A sham craniectomy operation was performed on a parallel group of rats, but without cauterization of the MCA.
At 24 and 48 hours post surgery a neurological score was taken in order to assess the severity of the injury in the drug-treated rats with respect to their untreated controls.
Drugs were administered as an s.c. injection, according to the following schedule:
The scale runs from 0 (fully normal rats) to 13 (fully incapacitated rats). Most parameters are rated as either 0 (normal), or 1 (incapacitated) others are graded. […]
In test [4] the target is T4, Human erythrocyte acetylcholinesterase (Homo sapiens, UniProt P22303).
T4 construct: Human erythrocyte acetylcholinesterase (type XIII, Sigma Israel); purchased Sigma Israel type XIII; host or cells: human erythrocytes
Kind of test: biochemical. The class given is biochemical. The conditions noted are these: AChE Inhibition In vitro IC50. The essentials:
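Erythrocyte AChE (type XIII) from 1 U/ml stock containing 1% Triton and 0.05% BSA in phosphate buffer pH 8; 0.05 U enzyme preincubated with 3-5 compound concentrations, triplicate, 15 to 60 minutes at 37° C. Percent inhibition calculated against drug-free enzyme.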

Where [5] appears, read: 15 mg/kg sc once 15 min after CHI.
Setting [6] is: 6.5 mg/kg sc once 15 min after CHI.
Where [7] appears, read: 46 mg/kg administered 60 min before CHl.
The mark [8] stands for this setting: 46 mg/kg sc once 15 min after CHI.

T4 sequence (P22303 32-617 isoform P22303-2 limits assumed): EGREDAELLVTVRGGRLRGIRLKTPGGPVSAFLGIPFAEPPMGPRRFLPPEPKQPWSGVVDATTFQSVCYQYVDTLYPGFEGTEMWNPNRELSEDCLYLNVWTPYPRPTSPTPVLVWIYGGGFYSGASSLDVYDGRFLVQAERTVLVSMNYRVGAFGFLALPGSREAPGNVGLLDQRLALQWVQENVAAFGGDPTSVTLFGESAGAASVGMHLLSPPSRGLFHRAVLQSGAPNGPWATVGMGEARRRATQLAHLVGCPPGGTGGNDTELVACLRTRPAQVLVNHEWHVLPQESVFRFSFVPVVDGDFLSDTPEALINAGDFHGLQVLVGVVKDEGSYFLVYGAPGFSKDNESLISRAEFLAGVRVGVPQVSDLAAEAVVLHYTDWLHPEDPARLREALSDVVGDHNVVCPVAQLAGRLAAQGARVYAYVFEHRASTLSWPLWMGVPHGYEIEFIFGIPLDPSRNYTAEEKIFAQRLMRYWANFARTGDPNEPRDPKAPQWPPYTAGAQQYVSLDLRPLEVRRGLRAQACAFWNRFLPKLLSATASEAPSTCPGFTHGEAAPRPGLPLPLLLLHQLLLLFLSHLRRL
Experimental for whole brain AChE: Test drugs or saline were administered sub-cutaneously to male mice (Sabra strain, 28-35 g). […] The mice were sacrificed 15, 30, 50, 70, 90, 120 or 180 minutes after drug administration, the brains rapidly removed (minus cerebellum), weighed and homogenized in 0.1 M phosphate buffer, pH 8.0, containing Triton (1 mg/100 g tissue) and centrifuged to remove cell debris. Aliquots (25 μl) of the supernatant were then incubated with acetylthiocholine and DTNB. AChE activity was measured as described above. The % inhibition of whole brain AChE by each dose of drug was calculated by comparison with enzyme activity from 3 saline treated control mice run at the same time.

In the case of `CN(C)C(=O)Oc1ccc2c(c1)C(N)CC2` (centres unmarked) [Compound 1], the IC50 against MAO-B was greater than 1000 µM. Also, on whole brain AChE, the “AChE Inhibition Ex vivo ED50 (AC)” value came to 5.0 µmol/kg, the “AChE Inhibition Time to peak activity t” value is reported as 30 min and the “AChE Inhibition Time to return to 50% of peak t” value is given as greater than 120 min.
On to `CCN(C)C(=O)Oc1ccc2c(c1)C(NC)CC2` (centres unmarked) [Compound 10], for which, in test [1] (setting [5]), the “ΔNSS, 24 hr post-CHl” value is 5.36 ± 0.39; the “ΔNSS, 7 days post-CHl” value is reported as 6.64 ± 0.41^m; the “ΔNSS, 14 days post-CHl” value was determined as 6.73 ± 0.52. Moreover, on whole brain AChE, the “AChE Inhibition Ex vivo ED50 (AC)” value was 34.7 µmol/kg, the “AChE Inhibition Time to peak activity t” value was in the range of 60 to 90 min and the “AChE Inhibition Time to return to 50% of peak t” value was greater than 180 min.
Regarding `C#CCNC1CCc2ccc(OC(=O)N(C)C)cc21` (centres unmarked) [Compound 24, 6-(N,N-Dimethylcarbamyloxy)-N-propargyl aminoindan mesylate], the inhibition at 10 mg/kg on MAO-A (po, read-out: % MAO-A inhibition, Brain, po, 10 mg/kg daily for 14 days, rats) was found to be 0%; on MAO-A (po, read-out: % MAO-A inhibition, Intestine, po, 10 mg/kg daily for 14 days, rats), 30%; on MAO-A (po, read-out: % MAO-A inhibition, Liver, po, 10 mg/kg daily for 14 days, rats), 10%. Also, the inhibition at 6 mg/kg on MAO-A (sc, read-out: % MAO-A inhibition, Brain, sc, 6 mg/kg daily for 14 days, rats) is 30%; on MAO-A (sc, read-out: % MAO-A inhibition, Intestine, sc, 6 mg/kg daily for 14 days, rats), 0%; on MAO-A (sc, read-out: % MAO-A inhibition, Liver, sc, 6 mg/kg daily for 14 days, rats), 0%. Moreover, the “Volume infarction Mean ± SD” value in test [2] worked out at 152 ± 45 mm*. Besides, the “ΔNSS, 24 hr post-CHl” value in test [1] (setting [6]) is reported as 6.31 ± 0.23^m. Moreover, in test [1] (setting [6]), the “ΔNSS, 7 days post-CHl” value is listed as 8.67 ± 0.41^m. The “ΔNSS, 14 days post-CHl” value in test [1] (setting [6]) is 9.67 ± 0.66^m. At MAO-B, the half-maximal inhibitory concentration (IC50) was determined as 750 µM. Moreover, the “ΔNSS (difference measured at 24 hours and 48 hours)” value in test [3] (s.c. […] 15 minutes prior to MCA-O and 6.5 mg/kg 2 hours post MCA-O) came out at 1.625.
With `C#CCNC1CCc2ccc(OC(=O)N(C)CC)cc21` (centres unmarked) [Compound 25, 6-(N-Me, N-Etcarbamyloxy) N-propargyl aminoindan, HCl], at MAO-A (in vivo), the “selectivity of MAO inhibition, brain versus periphery (liver, intestines)” value is “selectivity in inhibiting MAO enzyme sub-types in the brain in preference to the periphery”. In addition, on MAO-A (in vivo, po, 50 mg/kg), the “% MAO-A inhibition” value is given as 25%. Also, the “% MAO-A inhibition” value on MAO-A (in vivo, sc, 25 mg/kg) came out at 0%. In addition, in test [2], the “Volume infarction Mean ± SD” value worked out at 189 ± 54 mm*. Besides, in test [1] (setting [7]), the “ΔNSS, 24 hr post-CHl” value came to 4.90 ± 0.43; the “ΔNSS, 7 days post-CHl” value is given as 7.70 ± 0.33^m; the “ΔNSS, 14 days post-CHl” value is listed as 8.80 ± 0.33^m. Besides, in test [1] (setting [8]), the “ΔNSS, 24 hr post-CHl” value was found to be 5.00 ± 0.42; the “ΔNSS, 7 days post-CHl” value is 7.42 ± 0.62^m; the “ΔNSS, 14 days post-CHl” value is given as 9.01 ± 0.69^m. In test [4], this compound yielded an IC50 of 53 µM. The “ΔNSS (difference measured at 24 hours and 48 hours)” value in test [3] (s.c. 43 mg/kg 90 minutes prior to MCA-O and 30 mg/kg 3 hours post MCA-O) came out at 1.78. On whole brain AChE, the “AChE Inhibition Ex vivo ED50 (AC)” value came out at 140.0 µmol/kg, the “AChE Inhibition Time to peak activity t” value turned out to be 60 min and the “AChE Inhibition Time to return to 50% of peak t” value was greater than 180 min.
Compound `C#CCNC1CCc2cccc(OC(=O)N(C)C)c21` (centres unmarked) [Compound 27] came in with an IC50 in test [4] of 5.72 µM. The compound also had an IC50 against MAO-B greater than 1000 µM. Further, on whole brain AChE, the “AChE Inhibition Ex vivo ED50 (AC)” value was 30 µmol/kg, the “AChE Inhibition Time to peak activity t” value was determined as 15 min and the “AChE Inhibition Time to return to 50% of peak t” value is greater than 60 min.
In test [4], `C#CCN(C)C1CCc2ccc(OC(=O)N(C)C)cc21` (centres unmarked) [Compound 29] had an IC50 of 8.5 µM. Further, half-maximal inhibition on MAO-B (IC50) was put at 40 µM. Further, on whole brain AChE, the “AChE Inhibition Ex vivo ED50 (AC)” value amounted to 53.7 µmol/kg, the “AChE Inhibition Time to peak activity t” value is given as 15 min and the “AChE Inhibition Time to return to 50% of peak t” value is listed as greater than 60 min.
